The record followed here is ChEMBL document CHEMBL1201862, “PubChem BioAssay data set” (2004).

Structures are written as SMILES.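 Each compound was tested at five concentrations against cells in 96-well plates for 48 hours. Here, GI50 denotes the concentration required for 50% inhibition of growth.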 Activity calls are given as the source filed them. Rule as the data show it: active = GI50 up to about 1.1 µM and inactive = higher.

Among the test systems are EKVX; LOX IMVI; OVCAR-4; RPMI-8226; HCT-116; 786-0; MOLT-4; SF-539; HCT-15; PC-3; MCF7; IGROV-1; BT-549; Hs-578T; HCC 2998; NCI-H522; NCI/ADR-RES; UO-31; T47D; A549.
Assay in all cases: NCI anticancer screen, dose series, 48 h

Regarding `C/C(=N\NC(=S)Nc1ccc(C)cc1)c1nc2cccnc2[nH]1`, the GI50 in the test on EKVX was 0.61 µM (active); in the test with LOX IMVI it was 1.41 µM (inactive); in the test with OVCAR-4, 0.25 µM (active); in the test on RPMI-8226, 3.01 µM (inactive); in the test with HCT-116, 1.6 µM (inactive); with 786-0, 1.6 µM (inactive). For the same compound, the GI50 in the test with MOLT-4 is 1.27 µM (inactive); with SF-539, 1.14 µM (inactive); with HCT-15, 2.86 µM; with PC-3, 1.73 µM (inactive); in the test with MCF7, 0.721 µM (active); in the test with IGROV-1, 2.31 µM (inactive). For the same compound, the GI50 with BT-549 was 1.23 µM (inactive); with Hs-578T, 10.8 µM (inactive); with HCC 2998, 5.47 µM (inactive); with NCI-H522 it was 0.986 µM (active); in the test with NCI/ADR-RES, 4.04 µM (inactive); in the test on UO-31, 0.649 µM (active). The GI50 was 0.406 µM (active) in the test with T47D and 2.33 µM (inactive) with A549.
For the compound `CC1C(=O)O[B-]2(c3ccccc3)Oc3ccccc3C=[N+]12` (stereo not given), the GI50 in the test on EKVX, in the test on LOX IMVI, in the test with OVCAR-4, in the test on RPMI-8226, in the test on HCT-116 and in the test on 786-0 was > 100 µM (inactive) in each case. Moreover, the GI50 is > 100 µM (inactive) in the test with MOLT-4; > 100 µM (inactive) in the test with SF-539; greater than 100 µM in the test with HCT-15; > 100 µM (inactive) in the test with PC-3; 61.2 µM (inactive) in the test with MCF7; > 100 µM (inactive) in the test on IGROV-1. In addition, the GI50 in the test on BT-549, in the test on Hs-578T, with HCC 2998, in the test with NCI-H522, in the test with NCI/ADR-RES and with UO-31 was > 100 µM (inactive) each time. Further, the GI50 in the test with T47D and in the test on A549 was > 100 µM (inactive) throughout.
In the case of `O=C(O)c1ccc(NNC(=O)c2cccc3c(=O)c4ccccc4[nH]c23)cc1`, the GI50 in the test with EKVX is 57.9 µM (inactive); in the test with LOX IMVI it was 44.6 µM (inactive); in the test on OVCAR-4 it was > 100 µM (inactive); with RPMI-8226, > 100 µM (inactive); with HCT-116 it was > 100 µM (inactive); in the test on 786-0, > 100 µM (inactive). In addition, the GI50 is 78.9 µM (inactive) in the test with MOLT-4; > 100 µM (inactive) in the test on SF-539; greater than 100 µM with HCT-15; > 100 µM (inactive) in the test with PC-3; > 100 µM (inactive) in the test on MCF7; > 100 µM (inactive) with IGROV-1. For the same compound, the GI50 in the test on BT-549 is 85.7 µM (inactive); with Hs-578T it was > 100 µM (inactive); in the test on HCC 2998, > 100 µM (inactive); in the test on NCI-H522 it was 25.4 µM (inactive); in the test with NCI/ADR-RES, > 100 µM (inactive); with UO-31, 89.7 µM (inactive). The GI50 with T47D is 31.6 µM (inactive); in the test on A549, > 100 µM (inactive).
For `CC(C)(C)OC(=O)NCC(O)CNC(=O)OC(C)(C)C`, the GI50 in the test with EKVX, with LOX IMVI, in the test with OVCAR-4, in the test on RPMI-8226, in the test with HCT-116 and with 786-0 was > 100 µM (inactive) each time. For the same compound, the GI50 is > 100 µM (inactive) in the test on MOLT-4; > 100 µM (inactive) in the test on SF-539; greater than 100 µM with HCT-15; > 100 µM (inactive) with PC-3; > 100 µM (inactive) in the test on MCF7; > 100 µM (inactive) in the test on IGROV-1. For the same compound, the GI50 with BT-549, with Hs-578T, in the test with HCC 2998, in the test with NCI-H522, in the test on NCI/ADR-RES and in the test with UO-31 was > 100 µM (inactive) each time. The GI50 in the test on T47D and in the test on A549 was > 100 µM (inactive) throughout.
For `N=C(N)SCc1ccc(Cl)cc1Cl.O=[N+]([O-])c1c(O)c(Cl)cc(Cl)c1Cl`, the GI50 in the test on EKVX is 15.3 µM (inactive); in the test on LOX IMVI, 16.7 µM (inactive); with OVCAR-4, 12 µM (inactive); in the test on RPMI-8226 it was 1.81 µM (inactive); in the test on HCT-116, 11.8 µM (inactive); in the test with 786-0 it was 11.7 µM (inactive). Moreover, the GI50 was 7.4 µM (inactive) with MOLT-4; 12.9 µM (inactive) in the test on SF-539; 13.3 µM with HCT-15; 11.9 µM (inactive) in the test on PC-3; 11.5 µM (inactive) in the test with MCF7; 17.8 µM (inactive) in the test on IGROV-1. Besides, the GI50 is 16.3 µM (inactive) in the test with BT-549; 20.7 µM (inactive) in the test on Hs-578T; 8.18 µM (inactive) with HCC 2998; 10.3 µM (inactive) in the test with NCI-H522; 19.5 µM (inactive) with NCI/ADR-RES; 9.06 µM (inactive) with UO-31. For the same compound, the GI50 in the test with T47D was 9.82 µM (inactive); with A549, 22.3 µM (inactive).
For `N=C(N)NS(=O)(=O)c1ccc(NC(=O)c2cccc3c(O)c4ccccc4nc23)cc1`, the GI50 is > 100 µM (inactive) in the test on EKVX; > 75 µM (inactive) in the test on LOX IMVI; > 100 µM (inactive) in the test with OVCAR-4; > 100 µM (inactive) in the test with RPMI-8226; > 100 µM (inactive) in the test on HCT-116; 58.1 µM (inactive) with 786-0. In addition, the GI50 in the test with MOLT-4 is > 83 µM (inactive); with SF-539 it was > 78.3 µM (inactive); in the test with HCT-15, greater than 100 µM; in the test with PC-3, > 100 µM (inactive); in the test on MCF7 it was > 100 µM (inactive); with IGROV-1 it was 81.5 µM (inactive). Besides, the GI50 in the test with BT-549 is > 100 µM (inactive); with Hs-578T it was > 100 µM (inactive); with HCC 2998, > 71.8 µM (inactive); in the test on NCI-H522, > 100 µM (inactive); in the test on NCI/ADR-RES, > 100 µM (inactive); in the test on UO-31, > 100 µM (inactive). The GI50 in the test on T47D and with A549 was > 100 µM (inactive) each time.
On to `O=C(c1ccccc1)c1c(C(F)(F)F)[n+]([O-])c2cc(Cl)c(Cl)cc2[n+]1[O-]`, for which the GI50 in the test on EKVX was 3.27 µM (inactive); in the test on LOX IMVI, 0.41 µM (active); in the test with OVCAR-4 it was 1.56 µM (inactive); in the test on RPMI-8226 it was 0.373 µM (active); in the test on HCT-116, 0.528 µM (active); in the test with 786-0, 0.502 µM (active). The GI50 in the test on MOLT-4 was 0.643 µM (active); in the test on SF-539, 1.5 µM (inactive); in the test with HCT-15 it was 0.535 µM; in the test on PC-3 it was 1.18 µM (inactive); with MCF7, 0.557 µM (active); in the test on IGROV-1, 0.473 µM (active). The GI50 with BT-549 is 1.39 µM (inactive); with Hs-578T it was 0.849 µM (active); in the test on HCC 2998 it was 2.16 µM (inactive); with NCI-H522, 0.557 µM (active); with NCI/ADR-RES, 2.21 µM (inactive); in the test with UO-31 it was 1.47 µM (inactive). Further, the GI50 in the test on T47D was 1.45 µM (inactive); in the test on A549 it was 0.736 µM (active).
In the case of `O=C(NC(N1CCN(c2cc3c(cc2F)c(=O)c(C(=O)O)cn3C2CC2)CC1)(C(F)(F)F)C(F)(F)F)c1ccccc1`, the GI50 in the test with EKVX was 35.6 µM (inactive); in the test on LOX IMVI it was 33.9 µM (inactive); in the test with OVCAR-4, 35.2 µM (inactive); in the test on RPMI-8226 it was 27.7 µM (inactive); in the test on HCT-116, 34.1 µM (inactive); with 786-0, 45.2 µM (inactive). Also, the GI50 in the test with MOLT-4 was 26.1 µM (inactive); in the test on SF-539, 22 µM (inactive); in the test on HCT-15 it was 22.1 µM; in the test on PC-3, 45.1 µM (inactive); with MCF7, 29.8 µM (inactive); in the test on IGROV-1, 36.3 µM (inactive). In addition, the GI50 with BT-549 is 51.2 µM (inactive); with Hs-578T, 40.9 µM (inactive); with HCC 2998 it was 23.8 µM (inactive); in the test on NCI-H522 it was 17.7 µM (inactive); in the test with NCI/ADR-RES it was 46 µM (inactive); with UO-31, 30.5 µM (inactive). The values for the GI50 with T47D and in the test with A549 were 35.6 µM (inactive) and 39.7 µM (inactive), respectively.
Turning to `CC1(C)CC2=C(Sc3ccccc3N2)C(=O)C1C(=O)C(=O)Nc1cccc([N+](=O)[O-])c1` (stereo not given), the GI50 with EKVX was > 100 µM (inactive); with LOX IMVI, > 100 µM (inactive); in the test on OVCAR-4, 82.4 µM (inactive); with RPMI-8226 it was 64.6 µM (inactive); in the test with HCT-116 it was > 100 µM (inactive); in the test with 786-0, > 100 µM (inactive). In addition, the GI50 was 33 µM (inactive) in the test on MOLT-4; > 100 µM (inactive) in the test with SF-539; greater than 100 µM in the test with HCT-15; 75.9 µM (inactive) in the test with PC-3; > 100 µM (inactive) in the test with MCF7; > 100 µM (inactive) in the test on IGROV-1. For the same compound, the GI50 in the test with BT-549, with Hs-578T, in the test with HCC 2998, in the test on NCI-H522, in the test with NCI/ADR-RES and with UO-31 was > 100 µM (inactive) in each case. The GI50 with T47D and in the test with A549 was > 100 µM (inactive) throughout.
`COc1ccc(N(C)S(=O)(=O)c2ccccc2)cc1`: the GI50 in the test with EKVX is > 100 µM (inactive); in the test on LOX IMVI it was > 100 µM (inactive); in the test with OVCAR-4 it was > 100 µM (inactive); in the test with RPMI-8226 it was 86.9 µM (inactive); with HCT-116, > 100 µM (inactive); in the test on 786-0, > 100 µM (inactive). Moreover, the GI50 was 29.4 µM (inactive) in the test with MOLT-4; > 100 µM (inactive) with SF-539; greater than 100 µM in the test on HCT-15; 72.1 µM (inactive) with PC-3; > 100 µM (inactive) with MCF7; > 100 µM (inactive) in the test with IGROV-1. Also, the GI50 in the test with BT-549 is > 100 µM (inactive); in the test with Hs-578T, > 100 µM (inactive); with HCC 2998, 56 µM (inactive); with NCI-H522, > 100 µM (inactive); in the test with NCI/ADR-RES it was > 100 µM (inactive); in the test on UO-31 it was > 100 µM (inactive). The GI50 is 53.1 µM (inactive) in the test on T47D and > 100 µM (inactive) in the test on A549.
